Measurements taken from paper PMC5813964, “The enzymatic processing of α-dystroglycan by MMP-2 is controlled by two anchoring sites distinct from the active site” (PLoS ONE, 2018).
No end group written: not given here.

Experiments:
[1] = target: T1, cdMMP-2 (isolated catalytic domain of MMP-2) (Homo sapiens, UniProt P08253); assay: cdMMP-2 proteolysis of fluorogenic peptide, modulation by α-DG C-term peptide; assay type: biochemical; conditions: pH 7.3, 37°C, global fit Eqs 1-3
T1 construct: the catalytic domain of MMP-2 (without the hemopexin-like domain) retains the capability of degrading; purchased Biomol International
Description: (§1) Human MMP-2 proenzyme 2 was activated by incubating 0.1 mg/ml progelatinase solution with 0.25 mM aminophenyl mercuric acid (Sigma, St. Louis, MO, USA) at 37°C for 30 minutes. Whereas human recombinant cdMMP-2 human was dissolved in a solution of 50 mM Tris/HCl (pH 7.2), 0.1M NaCl and 10 mMCaCl. […] All measurements were performed at 37°C using a solution of 50 mM Tris–HCl, 0.1 M NaCl, 10 mM CaCl2 and 0.05% Brij 35 buffered at pH 7.3.
(§2) Different concentrations of the α-DG peptide (i.e., final concentration range spanning between 0 μM and 4 μM) were incubated with 0.07 μM active MMP-2 for 30 min at 37°C to allow the interaction to occur. In the case of the cdMMP2 the kinetics were performed employing 0.06 μM cdMMP-2 at different concentration of α-DG (613–651) peptide in the range 0–2 μM. Different concentrations of MCA fluorogenic peptide (i.e: from […]) were then added to this solution. The enzymatic reaction was recorded for 30 minutes at 37°C. The initial velocities were derived from the slopes within the first 15 minutes, which is the time period during which the rate is constant and less than 10% of the substrate was degraded. This ensured a steady-state condition for the first cleavage step, and it was a prerequisite for the subsequent analysis steps.
(§3) This behavior, which envisages the presence of (at least) two binding sites for the α-DG (613–651) peptide on the catalytic domain of MMP-2, can be kinetically and thermodynamically described by the scheme reported on Fig 5; where, ^0kcat and ^0Km are the observed catalytic parameters in the absence of the peptide, Ka and Kb are the peptide dissociation constants to the free enzyme for the two binding sites, α is the interaction parameter, which quantifies the effect on Km of the α-DG(613–651) peptide binding to the first binding site (α > 1 indicates a negative effect with a decreased affinity, α < 1 a positive effect and α = 1 no effect), β is the interaction parameter which estimates the effect on kcat of the binding of α-DG(613–651) peptide to the first binding site (β > 1 indicates a positive effect with an increased rate constant, β < 1 a negative effect and β = 1 no effect).
(§4) Data reported in Figs 4 and 5 have been analyzed according to the following equation: [E0]/v=^obsKm/^obskcat⋅1/[S]+1/^obskcat (Eq 1) where [E0] is the total enzyme concentration, ν is the observed velocity (expressed as mol/s), [S] is the substrate concentration, ^obskcat and ^obsKm are the observed catalytic parameters, namely ^obskcat=^0kcat⋅(Ka⋅α+β⋅[Pept])/(Ka⋅α+[Pept]) (Eq 2) and ^obsKm=^0Km⋅α⋅(Ka⋅Kb+Kb⋅[Pept]+[Pept]^2)/Kb⋅(Ka⋅α+[Pept]) (Eq 3) where ^0kcat and ^0Km are the catalytic paramenters in the absence of peptide and all other symbols have the same meaning as described above.

whole MMP-2 = target: T2, whole MMP-2 (Homo sapiens, UniProt P08253); assay: MMP-2 proteolysis of fluorogenic peptide, modulation by α-DG C-term peptide; assay type: biochemical; conditions: global fit Eqs 1-3
T2 construct: purchased R&D System, London, UK
T2 sequence (P08253 110-660): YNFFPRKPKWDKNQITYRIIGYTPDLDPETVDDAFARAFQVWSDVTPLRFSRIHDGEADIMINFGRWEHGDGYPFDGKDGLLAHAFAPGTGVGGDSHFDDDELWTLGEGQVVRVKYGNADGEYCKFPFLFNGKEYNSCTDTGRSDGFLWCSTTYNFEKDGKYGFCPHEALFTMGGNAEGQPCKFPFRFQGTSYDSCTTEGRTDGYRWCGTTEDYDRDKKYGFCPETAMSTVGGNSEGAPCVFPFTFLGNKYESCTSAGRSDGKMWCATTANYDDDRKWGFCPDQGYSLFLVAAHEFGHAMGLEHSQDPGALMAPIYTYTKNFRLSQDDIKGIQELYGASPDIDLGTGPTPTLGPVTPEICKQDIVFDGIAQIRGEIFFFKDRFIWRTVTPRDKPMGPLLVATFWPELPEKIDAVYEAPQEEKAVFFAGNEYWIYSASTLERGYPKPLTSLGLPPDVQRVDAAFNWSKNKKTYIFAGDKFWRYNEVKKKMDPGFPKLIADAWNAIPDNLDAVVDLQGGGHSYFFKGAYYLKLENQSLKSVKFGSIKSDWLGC
Description: as §1, §2, §3, §4

[2] = target: human recombinant catalytic domain of MMP-2 (cdMMP-2) (human)
[3] = target: human recombinant MMP-2 (whole enzyme, activated) (human)
[4] = target: human recombinant catalytic domain of MMP-2 (cdMMP-2) (human); assay: enzyme inhibition kinetics (fluorogenic substrate); peptide (0-4 μM with 0.07 μM active MMP-2; 0-2 μM with 0.06 μM cdMMP-2) incubated with the enzyme 30 min at 37°C, then MCA-Pro-Leu-Gly-Leu-DPA-Ala-Arg-NH2 added; initial velocities, global fit of Lineweaver-Burk data to a scheme with two peptide binding sites (Eqs 1-3); 50 mM Tris-HCl, 0.1 M NaCl, 10 mM CaCl2, 0.05% Brij 35, pH 7.3, 37°C
[5] = target: human recombinant MMP-2 (whole enzyme, activated) (human); assay: as above

Work on “VGDPALVLNDIHKKIALVKKLAFAFGDRNCSTITLQNIT [α-DG (613–651) peptide]” yielded a Kd ([1]; cd-MMP-2, fluorogenic substrate, peptide 0–2 μM, read-out: Ka (peptide dissociation constant to the free enzyme, first, high affinity non-competitive site)) of 35 nM, a Kb ([1]; cd-MMP-2, fluorogenic substrate, peptide 0–2 μM, read-out: Kb (peptide dissociation constant to the free enzyme, second, lower affinity competitive active site)) of 210 nM and a Kd (whole MMP-2; whole MMP-2, fluorogenic substrate, peptide 0-4 μM, 30 min preincubation at 37°C, pH 7.3, read-out: Ka (peptide dissociation constant to the free enzyme, first, high affinity non-competitive site)) of 35 nM. For the same molecule, the Kb (whole MMP-2; whole MMP-2, fluorogenic substrate, peptide 0-4 μM, 30 min preincubation at 37°C, pH 7.3, read-out: Kb (peptide dissociation constant to the free enzyme, second, lower affinity competitive active site)) was 210 nM.

“MCA-Pro-Leu-Gly-Leu-DPA-Ala-Arg-NH2 [fluorogenic substrate, reference compound]” was tested, and the “^0Km” value ([1]; cd-MMP-2, absence of peptide) was 1.9(±0.5)×10^−6 M, the “^0kcat” value ([1]; cd-MMP-2, absence of peptide) was 26.1 ± 4.1 s⁻¹ and the “^0kcat” value (whole MMP-2; whole MMP-2, absence of peptide, MCA-Pro-Leu-Gly-Leu-DPA-Ala-Arg-NH2 substrate, pH 7.3, 37°C, 50 mM Tris–HCl, 0.1 M NaCl, 10 mM CaCl2, 0.05% Brij 35, λexc 325 nm, λem 398 nm) was 29.6 ± 4.5 s⁻¹. The “^0Km” value (whole MMP-2; whole MMP-2, absence of peptide, pH 7.3, 37°C) was 1.5(±0.3)×10^−6 M.

VGDPALVLNDIHKKIALVKKLAFAFGDRNCSTITLQNIT [human α-DG (613–651) peptide] gave an interaction parameter β (effect of peptide at the first site on kcat for the fluorogenic substrate) [2] of 0.32, an interaction parameter α (effect of peptide at the first site on Km of the fluorogenic substrate) [3] of 1.7 and an interaction parameter β (effect of peptide at the first site on kcat for the fluorogenic substrate) [3] of 0.27. It also gave a Ka (dissociation constant, first site, higher affinity, non-competitive) [4] of 35 nM, a Kb (dissociation constant, second site, lower affinity, competitive) [4] of 210 nM and a Ka (dissociation constant, first site, higher affinity, non-competitive) [5] of 35 nM. The Kb (dissociation constant, second site, lower affinity, competitive) [5] was 210 nM.
